According to patent US10174037B2, “Dihydropyrazolopyrimidinone compounds as PDE2 inhibitors” (Merck Sharp & Dohme Corp., priority 2015, dated 2019):
Where two headings read alike, the source gives them in different places.

Assays:
Rhesus PDE2A3 = Rhesus PDE2A3 (Macaca mulatta, UniProt B3VTJ2); assay: PDE2 fluorescence polarization (IMAP FP) assay, rhesus PDE2A3; assay type: biochemical, rhesus macaque
Protocol: A Labcyte Echo 555 (Labcyte, Sunnyvale, Calif.) is used to dispense 200 nL from each well of the titration plate to the 384 well assay plate. Ten microliters of a solution of enzyme (1/2000 final dilution from aliquots; sufficient to produce 20% substrate conversion) was added to the assay plate. Next 10 uL of a separate solution of the substrate FAM-labeled cAMP (50 nM final concentration product # R7506 from Molecular Devices) and the activator cGMP (1 uM final concentration), prepared in the assay buffer (10 mM Tris HCl, pH 7.2, 10 mM MgCl2, 0.05% NaN3 0.01% Tween-20, and 1 mM DTT) was added to the assay plate and shaken to mix. The reaction is allowed to proceed at room temperature for 60 minutes. A binding solution is then made from the kit components, comprised of 80% Solution A, 20% Solution B and binding reagent at a volume of 1/600 the total binding solution. The enzymatic reaction is stopped by addition of 60 μL of the binding solution to each well of the assay plates and the plates are sealed and shaken for 30 seconds. The plate was incubated at room temperature for at least one hour prior to determining the fluorescence polarization (FP). The parallel and perpendicular fluorescence of each well of the plate was measured using a Tecan Genios Pro plate reader (Tecan, Switzerland) or Perkin Elmer EnVision™ plate reader (Waltham, Mass.). Fluorescence polarization (mP) was calculated from the parallel (S) and perpendicular (P) fluorescence of each sample well and the analogous values for the median control well, containing only substrate (So and Po), using the following equation: Polarization (mP)=1000*(S/So−P/Po)/(S/So+P/Po).
Dose-inhibition profiles for each compound were characterized by fitting the mP data to a four-parameter equation given below.
An apparent (KM) for FAM-labeled cAMP of ˜10 uM was used.

human PDE2A1 = human PDE2A1 (Homo sapiens (Human), UniProt O00408); assay: PDE selectivity IMAP FP assay, human PDE2A1; assay type: biochemical; conditions: Human PDE2; Lab B; read-out: Human PDE2 Ki (nM) Lab B
Summary of the method: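 IMAP fluorescence polarization assay; PDE2 substrate 50 nM FAM-cAMP containing 1000 nM cGMP, enzyme diluted for 20% substrate conversion, in 10 mM Tris HCl pH 7.2, 10 mM MgCl2, 1 mM DTT. Reaction 60 min at room temperature, stopped with IMAP binding solution; polarization read after 1 h. Ki reported.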

[1] = Lab B, read-out: Rhesus PDE2 Ki (nM) Lab B
[2] = Lab A, read-out: Rhesus PDE2 Ki (nM) Lab A

Chain of Rhesus PDE2A3 (B3VTJ2 1-941): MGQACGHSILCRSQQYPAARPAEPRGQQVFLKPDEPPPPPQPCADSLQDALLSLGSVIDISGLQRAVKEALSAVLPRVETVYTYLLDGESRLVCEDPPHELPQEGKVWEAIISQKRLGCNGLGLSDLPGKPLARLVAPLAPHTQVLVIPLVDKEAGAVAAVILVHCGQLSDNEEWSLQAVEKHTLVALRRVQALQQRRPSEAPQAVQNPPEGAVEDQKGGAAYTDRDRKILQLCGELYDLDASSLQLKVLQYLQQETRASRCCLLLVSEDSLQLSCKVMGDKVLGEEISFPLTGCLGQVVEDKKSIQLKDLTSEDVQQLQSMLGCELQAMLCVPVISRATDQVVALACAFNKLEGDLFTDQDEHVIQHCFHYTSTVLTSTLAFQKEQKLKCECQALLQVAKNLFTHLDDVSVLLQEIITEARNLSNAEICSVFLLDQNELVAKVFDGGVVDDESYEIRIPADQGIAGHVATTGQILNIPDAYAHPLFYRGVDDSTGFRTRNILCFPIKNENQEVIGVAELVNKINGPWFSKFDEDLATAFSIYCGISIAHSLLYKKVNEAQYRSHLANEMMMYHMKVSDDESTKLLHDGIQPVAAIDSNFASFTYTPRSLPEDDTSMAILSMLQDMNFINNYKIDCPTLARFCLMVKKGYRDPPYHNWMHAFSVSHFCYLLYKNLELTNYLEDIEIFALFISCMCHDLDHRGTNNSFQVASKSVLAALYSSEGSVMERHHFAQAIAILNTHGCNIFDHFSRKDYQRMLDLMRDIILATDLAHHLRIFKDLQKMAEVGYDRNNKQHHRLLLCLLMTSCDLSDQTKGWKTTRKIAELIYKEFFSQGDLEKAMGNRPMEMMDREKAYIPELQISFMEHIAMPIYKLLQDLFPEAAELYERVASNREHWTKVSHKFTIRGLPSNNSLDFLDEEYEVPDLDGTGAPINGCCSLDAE
Chain of human PDE2A1 (O00408 other isoform, or with tags, fused parts or gaps): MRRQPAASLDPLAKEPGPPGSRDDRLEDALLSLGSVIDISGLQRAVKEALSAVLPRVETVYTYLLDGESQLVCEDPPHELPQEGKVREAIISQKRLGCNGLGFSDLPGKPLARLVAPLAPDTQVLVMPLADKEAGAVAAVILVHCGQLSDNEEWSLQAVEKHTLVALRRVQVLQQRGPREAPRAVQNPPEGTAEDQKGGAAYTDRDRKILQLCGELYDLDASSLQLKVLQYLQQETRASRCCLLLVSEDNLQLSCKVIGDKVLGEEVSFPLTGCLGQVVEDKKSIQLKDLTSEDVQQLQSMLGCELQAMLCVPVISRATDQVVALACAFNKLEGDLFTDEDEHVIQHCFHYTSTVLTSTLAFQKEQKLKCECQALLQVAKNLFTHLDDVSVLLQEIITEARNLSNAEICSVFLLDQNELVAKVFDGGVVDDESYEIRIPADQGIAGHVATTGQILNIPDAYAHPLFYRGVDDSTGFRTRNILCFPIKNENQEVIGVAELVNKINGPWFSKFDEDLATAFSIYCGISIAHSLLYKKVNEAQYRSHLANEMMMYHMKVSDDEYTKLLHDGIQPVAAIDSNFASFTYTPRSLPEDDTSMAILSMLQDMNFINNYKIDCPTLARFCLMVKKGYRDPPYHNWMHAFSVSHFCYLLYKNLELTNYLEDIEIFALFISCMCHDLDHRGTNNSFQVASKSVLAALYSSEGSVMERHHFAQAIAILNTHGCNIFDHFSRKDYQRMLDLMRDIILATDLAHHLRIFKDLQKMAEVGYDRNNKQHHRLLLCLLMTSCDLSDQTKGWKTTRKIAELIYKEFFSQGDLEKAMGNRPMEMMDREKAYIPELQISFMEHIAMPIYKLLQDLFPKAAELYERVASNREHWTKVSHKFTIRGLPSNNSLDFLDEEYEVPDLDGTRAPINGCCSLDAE

Compound | Ki (Rhesus PDE2A3; [1]) [nM] | Ki (Rhesus PDE2A3; [2]) [nM] | Ki (human PDE2A1) [nM]
C[C@H](c1ccc(C(F)(F)F)c(F)c1)n1nc(CF)c2c(=O)[nH]c(O)nc21 (mixture of isomers) [Example 35, (R)- and (S)-1-(1-(3-Fluoro-4-(trifluoromethyl)phenyl)ethyl)-3-(fluoromethyl)-6-hydroxy-H-pyrazolo[3,4-d]pyrimidin-4(5H)-one] | 209 | – | –
CC(c1ccc(C(F)(F)F)c(F)c1)n1nc(CO)c2c(=O)[nH]c(O)nc21 (single isomer, unassigned) [Example 2] | 364 | – | –
CC(c1ccc(OC(F)(F)F)c(F)c1)n1nc(CO)c2c(=O)[nH]c(O)nc21 (single isomer, unassigned) [Example 10] | 249 | 145 | –
CC(c1ccc(OC(F)(F)F)c(F)c1)n1nc(CO)c2c(=O)[nH]c(O)nc21 (single isomer, unassigned) [Example 11] | 34 | 14 | –
CC(c1ccc(S(F)(F)(F)(F)F)cc1)n1nc(CO)c2c(=O)[nH]c(O)nc21 (single isomer, unassigned) [Example 20, (R)- or (S)-6-Hydroxy-3-(hydroxymethyl)-1-{1-[4-(pentafluorosulfanyl)phenyl]ethyl}-1,5-dihydro-4H-pyrazolo[3,4-d]pyrimidin-4-one] | – | ~684 | –
CC(C)(C)C(c1ccc(C(F)(F)F)c(F)c1)n1nc(CO)c2c(=O)[nH]c(O)nc21 (single isomer, unassigned) [Example 24] | ~2270 | – | –
CC(C)(C)C(c1ccc(C(F)(F)F)c(F)c1)n1nc(CO)c2c(=O)[nH]c(O)nc21 (single isomer, unassigned) [Example 25] | 238 | – | –
CC(C)C(c1ccc(C(F)(F)F)c(F)c1)n1nc(CO)c2c(=O)[nH]c(O)nc21 (single isomer, unassigned) [Example 28, (S)- or (R)-1-(1-(3-F1uoro-4-(trifluoromethyl)phenyl)-2-methylpropyl)-6-hydroxy-3-(hydroxymethyl)-1H-pyrazolo[3,4-d]pyrimidin-4(5H)-one] | 117 | – | –
CCC(c1ccc(CC(F)(F)F)c(F)c1)n1nc(CO)c2c(=O)[nH]c(N(C)C)nc21 (single isomer, unassigned) [Example 96, (R)- or (S)-6-(Dimethylamino)-1-(1-(3-fluoro-4-(2,2,2-trifluoroethyl)phenyl)propyl)-3-(hydroxymethyl)-1H-pyrazolo[3,4-d]pyrimidin-4(5H)-one] | 0.5 | – | –
CCC(c1ccc(C(F)F)c(F)c1)n1nc(CO)c2c(=O)[nH]c(N(C)C)nc21 (single isomer, unassigned) [Example 147] | 0.54 | – | –
CC(C)C(c1ccc(C(F)(F)F)c(F)c1)n1nc(CF)c2c(=O)[nH]c(N(C)C)nc21 (single isomer, unassigned) [Example 220, (R)- or (S)-6-(Dimethylamino)-1-(1-(3-fluoro-4-(trifluoromethyl)phenyl)-2-methylpropyl)-3-(fluoromethyl)-1H-pyrazolo[3,4-d]pyrimidin-4(5H)-one] | 0.5 | – | –
CC(C)C(c1ccc(OC(F)(F)F)cc1)n1nc(CC(F)(F)F)c2c(=O)[nH]c(O)nc21 (single isomer, unassigned) [Example 232, (R)- or (S)-6-Hydroxy-1-(2-methyl-1-(4-(trifluoromethoxy)phenyl)propyl)-3-(2,2,2-trifluoroethyl)-1H-pyrazolo[3,4-d]pyrimidin-4(5H)-one] | 192 | – | –
CC(C)C(c1ccc(OC(F)(F)F)cc1)n1nc(CC(F)(F)F)c2c(=O)[nH]c(O)nc21 (single isomer, unassigned) [Example 233, (S)- or (R)-6-Hydroxy-1-(2-methyl-1-(4-(trifluoromethoxy)phenyl)propyl)-3-(2,2,2-trifluoroethyl)-1H-pyrazolo[3,4-d]pyrimidin-4(5H)-one] | 132 | – | –
CC(c1ccc(C(F)(F)F)c(F)c1)n1nc(CC(F)(F)F)c2c(=O)[nH]c(O)nc21 (single isomer, unassigned) [Example 234, (R)- or (S)-1-(1-(3-Fluoro-4-(trifluoromethyl)phenyl)ethyl)-6-hydroxy-3-(2,2,2-trifluoroethyl)-1H-pyrazolo[3,4-d]pyrimidin-4(5H)-one] | 180 | – | –
CC(c1ccc(C(C)(C)C)cc1)n1nc(CC(F)(F)F)c2c(=O)[nH]c(O)nc21 (single isomer, unassigned) [Example 237, (S)- or (R)-1-(1-(4-tert-Butylphenyl)ethyl)-6-hydroxy-3-(2,2,2-trifluoroethyl)-1H-pyrazolo[3,4-d]pyrimidin-4(5H)-one] | 494 | – | –

Results, then the compound that gave them:

Ki (Rhesus PDE2A3; [1]) [nM] | Ki (Rhesus PDE2A3; [2]) [nM] | Ki (human PDE2A1) [nM] | Compound
192 | – | – | CC(C)C(c1ccc(C(F)(F)F)cc1)n1nc(CO)c2c(=O)[nH]c(O)nc21 (single isomer, unassigned) [Example 12]
410 | – | – | O=c1[nH]c(O)nc2c1c(CO)nn2C(c1ccc(C(F)(F)F)cc1)C1CC1 (single isomer, unassigned) [Example 14]
17 | – | – | O=c1[nH]c(O)nc2c1c(CO)nn2C(c1ccc(C(F)(F)F)cc1)C1CC1 (single isomer, unassigned) [Example 15, (S) or (R)-1-(Cyclopropyl(4-(trifluoromethyl)phenyl)methyl)-6-hydroxy-3-(hydroxymethyl)-1H-pyrazolo[3,4-d]pyrimidin-4(5H)-one]
– | > 1000 | – | CC(c1ccc(C(F)(F)F)cc1)n1nc(CO)c2c(=O)[nH]c(O)nc21 (single isomer, unassigned) [Example 18, (R)- or (S)-6-Hydroxy-3-(hydroxymethyl)-1-{1-[4-(trinuoromethyl)phenyl]ethyl}-1,5-dihydro-4H-pyrazolo[3,4-d]pyrimidin-4-one]
253 | – | – | O=c1[nH]c(O)nc2c1c(CO)nn2C(CC(F)(F)F)c1ccc(C(F)(F)F)cc1 (single isomer, unassigned) [Example 22]
~2700 | – | – | O=c1[nH]c(O)nc2c1c(CO)nn2C(CC(F)(F)F)c1ccc(C(F)(F)F)cc1 (single isomer, unassigned) [Example 23]
220 | – | – | CC(C)(C)C(c1ccc(C(F)(F)F)cc1)n1nc(CO)c2c(=O)[nH]c(O)nc21 (single isomer, unassigned) [Example 29, (R)- or (S)-1-(2,2-Dimethyl-1-(4-(trifluoromethyl)phenyl)propyl)-6-hydroxy-3-(hydroxymethyl)-1H-pyrazolo[3,4-d]pyrimidin-4(5H)-one]
2040 | – | – | CC(C)(C)C(c1ccc(C(F)(F)F)cc1)n1nc(CO)c2c(=O)[nH]c(O)nc21 (single isomer, unassigned) [Example 30, (S)- or (R)-1-(2,2-Dimethyl-1-(4-(trifluoromethyl)phenyl)propyl)-6-hydroxy-3-(hydroxymethyl)-1H-pyrazolo[3,4-d]pyrimidin-4(5H)-one]
123 | – | – | CC(C)(C)C(c1ccc(C(F)(F)F)cc1)n1nc(CF)c2c(=O)[nH]c(O)nc21 (single isomer, unassigned) [Example 51]
910 | – | – | CC(C)(C)C(c1ccc(C(F)(F)F)cc1)n1nc(CF)c2c(=O)[nH]c(O)nc21 (single isomer, unassigned) [Example 52]
12 | – | – | O=c1[nH]c(O)nc2c1c(CC(F)(F)F)nn2C(c1ccc(C(F)(F)F)cc1)C1CC1 (single isomer, unassigned) [Example 227]
210 | – | – | O=c1[nH]c(O)nc2c1c(CC(F)(F)F)nn2C(c1ccc(C(F)(F)F)cc1)C1CC1 (single isomer, unassigned) [Example 228]
166 | – | – | O=c1[nH]c(O)nc2c1c(CC(F)(F)F)nn2C(c1ccc(C(F)(F)F)c(F)c1)C1CC1 (single isomer, unassigned) [Example 239, (S)- or (R)-1-(Cyclopropyl(3-fluoro-4-(trifluoromethyl)phenyl)methyl)-6-hydroxy-3-(2,2,2-trifluoroethyl)-1H-pyrazolo[3,4-d]pyrimidin-4(5H)-one]
199 | – | – | CC(C)C(c1ccc(C(F)(F)F)cc1)n1nc(CC(F)(F)F)c2c(=O)[nH]c(O)nc21 (single isomer, unassigned) [Example 241, (S)- or (R)-6-Hydroxy-1-(2-methyl-1-(4-(trifluoromethyl)phenyl)propyl)-3-(2,2,2-trifluoroethyl)-1H-pyrazolo[3,4-d]pyrimidin-4(5H)-one]
– | – | 3.7 | CCOc1nc2c(c(CO)nn2[C@@H](C)c2ccc(C(F)(F)F)cc2)c(=O)[nH]1 [compound 302, 6-Ethoxy-3-(hydroxymethyl)-1-{(1S)-1-[4-(trifluoromethyl)phenyl]ethyl}-1,5-dihydro-4H-pyrazolo[3,4-d]pyrimidin-4-one]
